Results from patent US20260207602A1, “EGFR INHIBITORS” (Blueprint Medicines Corporation, priority 2022, published 2026).

Experiments:
EGFR L858R = target: T1, EGFR L858R (Homo sapiens, UniProt P00533, L858R); assay: Biochemical EGFR inhibition assay (Caliper mobility shift), EGFR L858R; conditions: biochemical Caliper mobility shift assay, EGFR L858R enzyme; read-out: Enz EGFR L858R IC50
T1 construct: purchased SignalChem E10-122BG
Method: (§1) Inhibitory effects of the compounds of the disclosure were measured in biochemical assays that measure the phosphorylation activity of EGFR enzyme phosphorylates 2.5 micromolar 5-FAM-[…]-CONH2 peptide substrate (ProfilerPro Kinase Peptide Substrate 22, PerkinElmer, Part #760366) in the presence of adenosine-5′-triphosphate (ATP) and varying concentrations of the test compound in 100 mM 2-[4-(2-hydroxyethyl)piperazin-1-yl]ethanesulfonic acid (HEPES), pH 7.5, 10 mM MgCl2, 0.015% Brij-35, 1 mM dithiothreitol (DTT), 1.0% dimehylsulfoxide (DMSO). Assays were performed at 1.0 mM ATP or at ATP Km of the EGFR enzymes. Reactions proceeded until between 10% to 20% total peptides were phosphorylated at room temperature (25° C.) and were terminated with 35 mM 2,2′,2″,2′″-(ethane-1,2-diyldinitrilo)tetraacetic acid (EDTA). Product was detected using the Caliper mobility shift detection method where the phosphorylated peptide (product) and substrate were electrophoretically separated and measured. Percent activity was plotted against log concentration of compound and points to generate an apparent IC50. The following enzyme forms of • EGFR were examples that were used in these assays: • EGFR WT (SignalChem, E10-112G) • EGFR L858R (SignalChem, E10-122BG) • EGFR (d746-750) (SignalChem, E10-122JG) • EGFR L858R C797S (SignalChem, E10-122ZG) • EGFR (d746-750) C797S (SignalChem, E10-122TG)

EGFR (d746-750) = target: T2, EGFR (d746-750) (Homo sapiens, UniProt P00533, DEL746-750); assay: Biochemical EGFR inhibition assay (Caliper mobility shift), EGFR (d746-750); conditions: biochemical Caliper mobility shift assay, EGFR Exon 19-del enzyme; read-out: Enz EGFR Exon 19-del IC50
T2 construct: purchased SignalChem E10-122JG
T2 sequence (P00533 with tags, fused parts or gaps DEL746-750 limits assumed): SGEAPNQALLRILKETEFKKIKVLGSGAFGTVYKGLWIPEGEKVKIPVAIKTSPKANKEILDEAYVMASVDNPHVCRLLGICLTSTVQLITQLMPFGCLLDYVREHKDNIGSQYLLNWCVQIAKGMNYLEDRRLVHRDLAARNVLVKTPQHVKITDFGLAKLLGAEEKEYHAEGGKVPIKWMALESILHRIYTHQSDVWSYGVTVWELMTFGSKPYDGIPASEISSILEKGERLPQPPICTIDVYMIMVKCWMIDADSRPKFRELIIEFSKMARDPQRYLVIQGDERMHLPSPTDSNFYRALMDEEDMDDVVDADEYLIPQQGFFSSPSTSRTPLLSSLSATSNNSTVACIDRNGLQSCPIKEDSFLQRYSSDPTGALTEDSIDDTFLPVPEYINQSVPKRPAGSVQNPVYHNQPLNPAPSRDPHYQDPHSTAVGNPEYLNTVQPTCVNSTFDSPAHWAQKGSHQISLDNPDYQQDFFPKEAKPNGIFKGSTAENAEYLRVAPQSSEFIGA
Method: as §1

[1] = target: intracellular phosphorylation of EGFR (Tyr1068) in PC-9 cells (Homo sapiens, UniProt P00533, DEL746-750); assay: PC-9 pEGFR AlphaLISA assay; type: cell-based; conditions: 4 hours incubation, read-out: Phos EGFR PC9 IC50
intracellular phosphorylation of EGFR (Tyr1068) in PC-9 cells, sequence (P00533 with tags, fused parts or gaps DEL746-750): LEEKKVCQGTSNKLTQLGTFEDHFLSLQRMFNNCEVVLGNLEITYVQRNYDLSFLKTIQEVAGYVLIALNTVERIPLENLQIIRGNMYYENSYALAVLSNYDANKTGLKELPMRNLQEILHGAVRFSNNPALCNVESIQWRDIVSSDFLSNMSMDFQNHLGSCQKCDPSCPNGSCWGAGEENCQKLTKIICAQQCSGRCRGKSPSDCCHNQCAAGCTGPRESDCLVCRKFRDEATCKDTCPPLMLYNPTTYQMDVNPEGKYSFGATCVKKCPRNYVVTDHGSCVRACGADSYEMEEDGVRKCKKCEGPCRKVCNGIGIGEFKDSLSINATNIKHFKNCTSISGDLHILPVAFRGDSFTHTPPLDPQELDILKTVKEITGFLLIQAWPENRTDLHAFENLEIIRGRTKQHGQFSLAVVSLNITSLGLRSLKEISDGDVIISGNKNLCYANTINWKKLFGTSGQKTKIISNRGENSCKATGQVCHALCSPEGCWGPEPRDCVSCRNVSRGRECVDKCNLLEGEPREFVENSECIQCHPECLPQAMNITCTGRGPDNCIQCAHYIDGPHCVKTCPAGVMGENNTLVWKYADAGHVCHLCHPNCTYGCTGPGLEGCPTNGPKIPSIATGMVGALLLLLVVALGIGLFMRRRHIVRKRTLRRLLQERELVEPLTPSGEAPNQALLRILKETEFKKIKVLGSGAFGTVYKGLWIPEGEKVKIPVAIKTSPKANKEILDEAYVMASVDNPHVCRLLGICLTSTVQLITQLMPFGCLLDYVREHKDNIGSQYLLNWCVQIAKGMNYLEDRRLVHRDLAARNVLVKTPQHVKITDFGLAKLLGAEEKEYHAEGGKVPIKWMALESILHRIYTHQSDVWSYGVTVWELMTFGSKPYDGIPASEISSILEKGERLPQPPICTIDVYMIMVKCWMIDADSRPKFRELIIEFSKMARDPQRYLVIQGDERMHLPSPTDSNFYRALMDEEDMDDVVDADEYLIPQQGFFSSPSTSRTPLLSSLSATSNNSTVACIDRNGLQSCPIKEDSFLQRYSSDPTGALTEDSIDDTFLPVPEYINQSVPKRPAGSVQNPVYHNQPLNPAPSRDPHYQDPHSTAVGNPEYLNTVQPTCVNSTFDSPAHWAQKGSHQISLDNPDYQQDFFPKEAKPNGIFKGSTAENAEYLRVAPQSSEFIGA
Method: PC-9/A431 pEGFR AlphaLISA Assays
Inhibitory effects of compounds were evaluated in cellular assays that measure level of intracellular phosphorylation of EGFR in PC-9 (ECACC, #90071810, Milipore/Sigma) and A431 cell lines (ATCC, CRL-1555) using AlphaLISA sureFire ultra p-EGFR (Tyr1068) assay kit (PerkinElmer, ALSU-PEGFR-A50K). PC-9 cells were seeded at 3.125×10^5 cells/ml in 40 μL phenol-free DMEM supplemented with 10% FBS per well of a 384 well plate (Corning, 3764), while A431 were seeded at […] in 40 μL in phenol-free DMEM with 0.5% FBS. Cells were allowed to adhere overnight at 37° C./5% CO2. On the next day, compounds were transferred at 4-fold, 10-point serial dilution from compound source plate to cell plates using liquid handler Echo550 and were incubated at 37° C./5% CO2 for 4 hours. A431 cells were stimulated prior harvesting for 10 min with EGF at final concentration of 30 ng/ml in the incubator. Medium was removed from the plates and cells were lysed with 10 μL of 1× AlphaLISA lysis buffer (supplemented with 1× protease/phosphatase inhibitor cocktail) followed by shaking at 600 rpm for 30 minutes at room temperature. Lysates were transferred to Optiplate (Apricot designs) and 5 ul of 1× acceptor bead mix (prepared just before use) was added to each well followed by incubation at room temperature for 1.5-2 h in dark. Then 5 μL of freshly-made donor bead mix is added to each well under subdued lighting or green filters, was mixed well on the shaker and the plate was sealed and left for an overnight incubation at room temperature in dark. On the next day, the plate was read the Envision using standard AlphaLisa settings. Percent of pEGFR inhibition was plotted against log concentration of compounds to generate IC50 values.

T1 sequence (P00533 25-1210 L858R): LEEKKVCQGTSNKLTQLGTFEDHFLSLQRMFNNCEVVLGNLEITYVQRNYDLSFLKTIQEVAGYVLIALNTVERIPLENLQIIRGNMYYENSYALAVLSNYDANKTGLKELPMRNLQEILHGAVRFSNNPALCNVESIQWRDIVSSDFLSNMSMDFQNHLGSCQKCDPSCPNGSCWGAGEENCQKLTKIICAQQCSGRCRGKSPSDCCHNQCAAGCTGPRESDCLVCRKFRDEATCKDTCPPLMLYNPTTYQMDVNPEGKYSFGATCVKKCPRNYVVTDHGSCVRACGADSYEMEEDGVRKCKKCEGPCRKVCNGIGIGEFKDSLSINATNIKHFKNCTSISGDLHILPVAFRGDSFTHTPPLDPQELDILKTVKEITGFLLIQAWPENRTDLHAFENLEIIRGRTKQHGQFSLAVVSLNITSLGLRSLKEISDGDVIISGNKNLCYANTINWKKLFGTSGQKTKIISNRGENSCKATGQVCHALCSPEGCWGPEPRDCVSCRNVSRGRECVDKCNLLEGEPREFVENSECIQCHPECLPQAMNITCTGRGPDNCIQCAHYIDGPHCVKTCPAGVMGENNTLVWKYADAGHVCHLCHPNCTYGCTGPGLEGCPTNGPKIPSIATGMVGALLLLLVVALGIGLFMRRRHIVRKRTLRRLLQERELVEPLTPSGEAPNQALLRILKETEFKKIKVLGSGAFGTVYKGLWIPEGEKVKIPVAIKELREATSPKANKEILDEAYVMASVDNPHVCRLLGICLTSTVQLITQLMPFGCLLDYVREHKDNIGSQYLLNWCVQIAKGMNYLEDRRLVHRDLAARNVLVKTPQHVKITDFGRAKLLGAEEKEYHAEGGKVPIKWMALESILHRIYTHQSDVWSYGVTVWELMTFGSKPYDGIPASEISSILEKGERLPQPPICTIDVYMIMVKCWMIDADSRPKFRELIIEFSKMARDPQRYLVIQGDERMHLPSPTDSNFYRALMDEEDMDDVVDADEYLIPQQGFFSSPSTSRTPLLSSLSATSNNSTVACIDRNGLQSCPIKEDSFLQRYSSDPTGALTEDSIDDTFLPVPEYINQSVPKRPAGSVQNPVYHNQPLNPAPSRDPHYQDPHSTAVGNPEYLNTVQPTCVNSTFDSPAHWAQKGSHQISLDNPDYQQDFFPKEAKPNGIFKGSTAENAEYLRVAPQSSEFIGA

Row | Structure (SMILES) | IC50 (EGFR L858R) [nM] | IC50 (EGFR (d746-750)) [nM] | IC50 [1] [nM]
1 | Cn1cc(-c2cc(O[C@H]3C[C@H](O)C3)c3c(Nc4ccc5ncsc5c4)ncnc3c2)cn1 [Example 19, trans-3-((4-(benzo[d]thiazol-6-ylamino)-7-(1-methyl-1H-pyrazol-4-yl)quinazolin-5-yl)oxy)cyclobutan-1-ol] | ≤ 10 | ≤ 10 | ≤ 10
2 | COc1cc2ncnc(Nc3ccc4ncsc4c3)c2cc1-c1cnn(C)c1 [Example 132, N-(7-methoxy-6-(1-methyl-1H-pyrazol-4-yl)quinazolin-4-yl)benzo[d]thiazol-6-amine] | ≤ 10 | ≤ 10 | ≤ 10
3 | C[C@H](CN(C)C)Oc1cc(N2CC3CC(C2)O3)cc2ncnc(Nc3ccc4ncsc4c3F)c12 [Example 176, N-(7-(6-oxa-3-azabicyclo[3.1.1]heptan-3-yl)-5-(((R)-1-(dimethylamino)propan-2-yl)oxy)quinazolin-4-yl)-7-fluorobenzo[d]thiazol-6-amine] | 10.1 to 50 | ≤ 10 | ≤ 10
4 | COC[C@H](C)Oc1cc(N2CCN(C)CC2)cc2ncnc(Nc3ccc4ncsc4c3)c12 (single isomer, unassigned) [Example 206] | ≤ 10 | – | 10.1 to 50
5 | CN1CCN(C(=O)Oc2cc(OC3CCOCC3)c3c(Nc4ccc5ncsc5c4)ncnc3c2)CC1 [Example A11, 4-[(1,3-benzothiazol-6-yl)amino]-5-(oxan-4-yloxy)quinazolin-7-yl 4-methylpiperazine-1-carboxylate] | > 50.1 | 10.1 to 50 | –
6 | CN1CC[C@@](C)(COc2cc(-c3cnn(C)c3)cc3ncnc(Nc4ccc5ncsc5c4)c23)C1=O (single isomer, unassigned) [Example 56] | ≤ 10 | – | 10.1 to 50
7 | C[C@@H](Oc1cc(-c2cnn(CC(C)(C)O)c2)cc2ncnc(Nc3ccc4ncsc4c3)c12)C1COC1 (single isomer, unassigned) [Example 128] | ≤ 10 | – | –
8 | Cn1cc(-c2cc(O[C@@H]3CCOC[C@@H]3F)c3c(Nc4ccc5ncsc5c4)ncnc3c2)cn1 (single isomer, unassigned) [Example 44] | ≤ 10 | – | 10.1 to 50
9 | CN1CC[C@@H](Oc2cc(-c3cnn(C)c3)cc3ncnc(Nc4ccc5ncsc5c4F)c23)C1 [Example 4, (R)-7-fluoro-N-(7-(1-methyl-1H-pyrazol-4-yl)-5-((1-methylpyrrolidin-3-yl)oxy)quinazolin-4-yl)benzo[d]thiazol-6-amine] | 10.1 to 50 | – | 10.1 to 50
10 | COc1nn(C)cc1-c1cc(O[C@H](C)C2COC2)c2c(Nc3ccc4ncsc4c3)ncnc2c1 (single isomer, unassigned) [Example 171] | ≤ 10 | – | –
11 | COCC[C@@H](C)Oc1cc(-c2cnn(C)c2)cc2ncnc(Nc3ccc4ncsc4c3F)c12 (single isomer, unassigned) [Example 109] | ≤ 10 | – | –
12 | C[C@@H](Oc1cc(-c2cnn(C)c2)cc2ncnc(Nc3ccc4ncsc4c3F)c12)[C@H]1CCOC1 (single isomer, unassigned) [Example 89] | ≤ 10 | – | –
13 | Cn1cc(-c2cc(OCC3CCOC3)c3c(Nc4ccc5ncsc5c4)ncnc3c2)cn1 (single isomer, unassigned) [Example 42] | ≤ 10 | – | 10.1 to 50
14 | CN1CC[C@H](Oc2cc(-c3cnn(C)c3)cc3ncnc(Nc4ccc5ncsc5c4F)c23)C1 [Example 16, (S)-7-fluoro-N-(7-(1-methyl-1H-pyrazol-4-yl)-5-((1-methylpyrrolidin-3-yl)oxy)quinazolin-4-yl)benzo[d]thiazol-6-amine] | 10.1 to 50 | – | –

Results, then the molecule that gave them:

Row | IC50 (EGFR L858R) [nM] | IC50 (EGFR (d746-750)) [nM] | IC50 [1] [nM] | Structure (SMILES)
15 | ≤ 10 | ≤ 10 | ≤ 10 | CC(Oc1cc(-c2cnn(C)c2)cc2ncnc(Nc3ccc4ncsc4c3F)c12)C(=O)N1CCOCC1 (stereo not shown) [Example 281, 2-((4-((7-fluorobenzo[d]thiazol-6-yl)amino)-7-(1-methyl-1H-pyrazol-4-yl)quinazolin-5-yl)oxy)-1-morpholinopropan-1-one]
16 | > 50.1 | > 50.1 | – | COc1cc(-c2cc(OC3CCOCC3)c3c(Nc4ccc5ncsc5c4)ncnc3c2)n(C)n1 [Example 256, N-(7-(3-methoxy-1-methyl-1H-pyrazol-5-yl)-5-((tetrahydro-2H-pyran-4-yl)oxy)quinazolin-4-yl)benzo[d]thiazol-6-amine]
17 | ≤ 10 | – | 10.1 to 50 | CN1C[C@H](F)[C@H](Oc2cc(-c3cnn(C)c3)cc3ncnc(Nc4ccc5ncsc5c4)c23)C1 (single isomer, unassigned) [Example 381]
18 | ≤ 10 | ≤ 10 | – | COc1cc2ncnc(Nc3ccc4ncsc4c3)c2cc1N[C@@H]1CCN(C)C[C@H]1F [Example 301, N4-(benzo[d]thiazol-6-yl)-N6-((3R,4R)-3-fluoro-1-methylpiperidin-4-yl)-7-methoxyquinazoline-4,6-diamine]
19 | 10.1 to 50 | ≤ 10 | – | C[C@H]1[C@H](Oc2cc(-c3cnn(C)c3)cc3ncnc(Nc4ccc5ncsc5c4)c23)CN1C (single isomer, unassigned) [Example 322]
20 | > 50.1 | 10.1 to 50 | – | COc1nn(C2CCN(C)CC2)cc1-c1cc(F)c2c(Nc3ccc4ncsc4c3F)ncnc2c1 [Example 226, 7-fluoro-N-(5-fluoro-7-(3-methoxy-1-(1-methylpiperidin-4-yl)-1H-pyrazol-4-yl)quinazolin-4-yl)benzo[d]thiazol-6-amine]
21 | ≤ 10 | – | 10.1 to 50 | CO[C@@H]1CN(C)CC[C@H]1Oc1cc(-c2cnn(C)c2)cc2ncnc(Nc3ccc4ncsc4c3)c12 (single isomer, unassigned) [Example A44]
22 | ≤ 10 | – | ≤ 10 | COc1cc2c(Nc3ccc4ncsc4c3F)ncnc2cc1-c1cnn(C)c1 [Example 265, 7-fluoro-N-(6-methoxy-7-(1-methyl-1H-pyrazol-4-yl)quinazolin-4-yl)benzo[d]thiazol-6-amine]
23 | ≤ 10 | – | 10.1 to 50 | Cn1cc(-c2cc(O[C@@H]3C[C@@H](O)[C@@H](O)C3)c3c(Nc4ccc5ncsc5c4)ncnc3c2)cn1 (single isomer, unassigned) [Example A23]
24 | ≤ 10 | – | – | C[C@@H](Oc1cc(-c2cnn(C(C)(C)CO)c2)cc2ncnc(Nc3ccc4ncsc4c3)c12)C1COC1 (single isomer, unassigned) [Example 292]
25 | ≤ 10 | – | 10.1 to 50 | C[C@H](CO)Oc1cc(N2CCN(C)CC2)cc2ncnc(Nc3ccc4ncsc4c3)c12 (single isomer, unassigned) [Example 294]
26 | ≤ 10 | – | – | C[C@H](CO)Oc1cc(-c2cnn(C)c2)cc2ncnc(Nc3ccc4ncsc4c3F)c12 (single isomer, unassigned) [Example 290]
27 | ≤ 10 | – | 10.1 to 50 | CN1CC[C@H](Oc2cc(-c3cnn(C)c3)cc3ncnc(Nc4ccc5ncsc5c4)c23)[C@@H](O)C1 (single isomer, unassigned) [Example A36]
28 | > 50.1 | > 50.1 | – | CN1CCN(c2cc(OC3CCOCC3)c3c(Nc4ccc5ncsc5c4)ncnc3c2)CC1(C)C [Example A58, N-(5-((tetrahydro-2H-pyran-4-yl)oxy)-7-(3,3,4-trimethylpiperazin-1-yl)quinazolin-4-yl)benzo[d]thiazol-6-amine]
29 | ≤ 10 | – | – | C[C@@H](Oc1cc(-c2cnn(C)c2)cc2ncnc(Nc3ccc4ncsc4c3)c12)[C@H]1CN(C)CCO1 (single isomer, unassigned) [Example 210]
30 | ≤ 10 | – | – | C[C@@H](Oc1cc(-c2cnn(C)c2)cc2ncnc(Nc3ccc4ncsc4c3)c12)[C@H]1CNCCO1 (single isomer, unassigned) [Example 208]
